PubChem BioAssay (NCI)
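48-hour exposure; five concentrations; linearly interpolated endpoints. GI50 = concentration required for 50% inhibition of growth. TGI is the concentration that stops growth completely.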

Columns and labels:
Test in all cases: NCI-60 cell line screen, 48 h
IGROV1 ovarian = tested on: IGROV1 ovarian
CAKI-1 renal = tested on: CAKI-1 renal
SK-MEL-2 melanoma = tested on: SK-MEL-2 melanoma
LOX IMVI melanoma = tested on: LOX IMVI melanoma
HL-60(TB) leukemia = tested on: HL-60(TB) leukemia
MALME-3M melanoma = tested on: MALME-3M melanoma
786-0 renal = tested on: 786-0 renal
NCI-H460 lung = tested on: NCI-H460 lung
SNB-75 CNS = tested on: SNB-75 CNS
T-47D breast = tested on: T-47D breast

Compound	TGI (IGROV1 ovarian)	TGI (CAKI-1 renal)	TGI (SK-MEL-2 melanoma)	TGI (LOX IMVI melanoma)	TGI (HL-60(TB) leukemia)	TGI (MALME-3M melanoma)	TGI (786-0 renal)	TGI (NCI-H460 lung)	TGI (SNB-75 CNS)	GI50 (IGROV1 ovarian)	GI50 (CAKI-1 renal)	GI50 (T-47D breast)	TGI (T-47D breast)	GI50 (LOX IMVI melanoma)	GI50 (HL-60(TB) leukemia)	GI50 (MALME-3M melanoma)	GI50 (786-0 renal)	GI50 (NCI-H460 lung)	GI50 (SNB-75 CNS)	GI50 (SK-MEL-2 melanoma)
CCOC(=O)C(=Cc1ccc(C(=O)OC)cc1)C(=O)OCC	7.73 µM	3.35 µM	3.37 µM	3.55 µM	4.36 µM	3.52 µM	3.15 µM	55.2 µM	4.65 µM											
CN1CC(C(=O)C2C(=O)c3ccccc3C2=O)C(=O)C(=O)C(C(=O)C2C(=O)c3ccccc3C2=O)C1 (centres undefined)	> 100 µM	> 100 µM	> 100 µM	> 100 µM	> 100 µM	> 100 µM	> 100 µM	> 100 µM	> 100 µM											
S=C1Nc2ccc(Cl)cc2C2(c3ccccc3)N3CCN=C3NN12 (centres undefined)	40.9 µM	> 100 µM		36.2 µM	53 µM	78.4 µM	> 100 µM	74.7 µM	> 100 µM	17.4 µM	48.8 µM	30.8 µM	99 µM	17.6 µM	22.7 µM	23.5 µM	38.3 µM	23.7 µM	17.6 µM	
CCN1c2ccccc2C(Cl)(c2ccc(N(C)C)cc2)c2ccccc21	7.98 µM	49.4 µM		13.6 µM	4.7 µM	12.4 µM	22.7 µM	23.4 µM	18.2 µM	2.61 µM	14.5 µM	4.22 µM	64.2 µM	3.67 µM	1.89 µM	3.33 µM	10.7 µM	7.77 µM	5.16 µM	
NC(=O)C(c1ccccc1)N1CCOCC1 (centres undefined)	> 100 µM	> 100 µM	> 100 µM	> 100 µM	> 100 µM	> 100 µM	> 100 µM	> 100 µM	> 100 µM											
Cc1cc(NS(=O)(=O)c2ccc(NC(=O)c3cccc4c(Nc5ccc(S(=O)(=O)N=C(N)N)cc5)c5ccccc5nc34)cc2)no1	> 100 µM	> 100 µM		> 100 µM	> 100 µM	> 100 µM	> 100 µM	> 100 µM	> 100 µM											
COc1ccc(/C=C\c2cc(OC)c(OC)c(OC)c2)cc1OC(=O)CCC(=O)O	> 100 µM	> 100 µM	> 100 µM	> 100 µM	< 0.0001 µM		> 100 µM	31.5 µM	> 100 µM		< 0.0001 µM		97.1 µM				0.0121 µM			
CC(C)(C)C(=O)ON1N=NC2C3CC(OCc4ccccc4)(OCc4ccccc4)C(O3)C21 (centres undefined)	> 100 µM	> 100 µM	34.3 µM	32.8 µM	19 µM	31.2 µM	36.4 µM	60.4 µM	69.5 µM											
O=C1CN(C(=O)c2ccccc2)Cc2[nH]c3ccccc3c21	> 100 µM		> 100 µM	> 100 µM	> 100 µM	> 100 µM	> 100 µM	> 100 µM	> 100 µM											
Cc1ccc2c(c1)NC(=O)CC(c1ccccc1)=N2	> 100 µM	> 100 µM	> 100 µM	> 100 µM		> 100 µM	> 100 µM	> 100 µM	> 100 µM				> 100 µM							
Fc1ccc(C2SCc3nc4ccccc4n32)cc1 (centres undefined)	> 100 µM	> 100 µM	> 100 µM	> 100 µM	71.8 µM	73.1 µM	> 100 µM	> 100 µM	9.55 µM											
COc1ccccc1C#Cc1ccccc1C#CCCCCCC#Cc1ccccc1C#Cc1ccccc1OC	> 100 µM	> 100 µM	> 100 µM	> 100 µM		> 100 µM	> 100 µM	> 100 µM	14.3 µM	77.7 µM	41.2 µM	6.75 µM	> 100 µM	98.1 µM		> 100 µM	> 100 µM	> 100 µM	1.81 µM	> 100 µM
COc1ccccc1NC(=O)C1=C(C)NC(C)=C(C(=O)Nc2ccccc2OC)C1c1ccc(C)cc1	> 100 µM	> 100 µM	> 100 µM	> 100 µM		> 100 µM	> 100 µM	> 100 µM	> 100 µM											
CCN(c1ccc(Br)cc1)c1c(Br)c(=O)nc2ccccn12	> 100 µM	> 100 µM	> 100 µM			> 100 µM	> 100 µM	> 100 µM	> 100 µM											
CCOC(=O)/C=C/C(C(=O)/C=C/c1ccc(O)c(OC)c1)=C(O)\C=C\c1ccc(O)c(OC)c1	93.8 µM	17.5 µM	26.2 µM	3.12 µM		> 100 µM	6.68 µM	54.4 µM	28.7 µM	11 µM	4.5 µM	8.07 µM	> 100 µM	0.903 µM		9.93 µM	1.98 µM	20 µM	11.2 µM	5.17 µM
O=C1C(=O)N(c2ccc(Cl)cc2Cl)C(=O)C(=O)C1c1nc2ccccc2o1	> 100 µM	> 100 µM	> 100 µM		> 100 µM	> 100 µM	> 100 µM	> 100 µM	> 100 µM											
CC(=O)OC1(C)C(=O)OC1(C)C(C)=O (centres undefined)	> 100 µM	> 100 µM	> 100 µM	> 100 µM	> 100 µM	> 100 µM	> 100 µM		> 100 µM											
O=C(CC(=O)N1N=C(N2c3ccccc3Sc3ccccc32)CC1c1ccccc1)Nc1ccc(Cl)cc1 (centres undefined)	> 100 µM	> 100 µM		> 100 µM		> 100 µM	> 100 µM	> 100 µM	> 100 µM											
NC(N)=NNC(=O)CCCCCCCC(=O)NN=C(N)N	> 100 µM	> 100 µM	> 100 µM	> 100 µM	> 100 µM	> 100 µM	> 100 µM	> 100 µM												
Cc1c(C)[n+](=O)c(C)c(C)n1[O-]	> 100 µM	> 100 µM		> 100 µM		> 100 µM	> 100 µM	> 100 µM	> 100 µM	> 100 µM	> 100 µM	> 100 µM	> 100 µM	> 100 µM		> 100 µM	> 100 µM	> 100 µM	79.8 µM	
O=C(OCC1CO1)c1cccs1 (centres undefined)	> 100 µM	> 100 µM	> 100 µM	> 100 µM	> 100 µM	> 100 µM	> 100 µM	> 100 µM	> 100 µM											
